Laboratory results taken from US20210253575A1, “PYRROLIDINE AMINE COMPOUNDS FOR THE TREATMENT OF AUTOIMMUNE DISEASE” (Hoffmann-La Roche Inc., priority 2018, published 2021).

target: T1, human TLR7 (Homo sapiens, UniProt Q9NYK1); test: HEK293-Blue-hTLR-7 cells assay (SEAP reporter, R848 stimulation); type: cell-based; conditions: HEK293-Blue-hTLR7 cells, R848 ligand, 20 hrs incubation
T1 sequence (Q9NYK1 27-1049): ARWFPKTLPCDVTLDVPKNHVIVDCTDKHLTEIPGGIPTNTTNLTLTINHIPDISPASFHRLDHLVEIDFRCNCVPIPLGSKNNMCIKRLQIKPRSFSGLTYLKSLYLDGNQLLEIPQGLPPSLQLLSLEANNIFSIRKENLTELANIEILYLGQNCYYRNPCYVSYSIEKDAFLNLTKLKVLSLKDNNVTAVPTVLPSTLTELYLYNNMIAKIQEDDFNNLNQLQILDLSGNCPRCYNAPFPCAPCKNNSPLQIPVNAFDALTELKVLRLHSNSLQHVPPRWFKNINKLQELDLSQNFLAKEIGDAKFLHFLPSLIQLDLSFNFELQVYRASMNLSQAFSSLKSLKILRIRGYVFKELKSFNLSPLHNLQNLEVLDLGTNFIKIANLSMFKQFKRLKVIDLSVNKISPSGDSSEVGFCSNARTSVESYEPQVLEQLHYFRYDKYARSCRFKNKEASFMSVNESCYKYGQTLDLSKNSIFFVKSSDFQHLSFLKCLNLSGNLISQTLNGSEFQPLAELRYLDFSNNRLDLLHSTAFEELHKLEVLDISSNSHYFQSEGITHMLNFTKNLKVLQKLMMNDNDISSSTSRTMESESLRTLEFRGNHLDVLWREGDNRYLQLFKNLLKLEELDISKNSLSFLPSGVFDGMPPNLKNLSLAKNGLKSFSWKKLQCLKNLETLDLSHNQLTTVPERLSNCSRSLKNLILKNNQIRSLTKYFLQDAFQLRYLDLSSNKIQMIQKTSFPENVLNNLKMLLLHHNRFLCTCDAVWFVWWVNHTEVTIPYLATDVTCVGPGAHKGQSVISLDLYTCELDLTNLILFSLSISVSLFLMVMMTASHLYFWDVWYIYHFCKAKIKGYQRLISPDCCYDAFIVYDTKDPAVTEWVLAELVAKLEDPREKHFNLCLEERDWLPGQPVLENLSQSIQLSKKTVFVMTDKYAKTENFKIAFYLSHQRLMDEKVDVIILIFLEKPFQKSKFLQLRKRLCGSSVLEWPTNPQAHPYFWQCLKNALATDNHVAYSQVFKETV
In short: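 Antagonism measured in stable HEK293-Blue-hTLR7 cells carrying an NF-κB/AP-1-driven SEAP reporter, stimulated with R848 (10 µL of 20 µM stock) with serially diluted compound, 1% DMSO, 20 h at 37 °C. Supernatant SEAP read with QUANTI-Blue after 2 h at 37 °C, absorbance 620–655 nm.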

Compound | IC50
N#Cc1ccc(N2CC(CN3CCNCC3)C3(CC3)C2)c2nccnc12 (centres unmarked) [Example 3, 8-[7-(piperazin-1-ylmethyl)-5-azaspiro[2.4]heptan-5-yl]quinoxaline-5-carbonitrile] | 27 nM
N#Cc1ccc(N2CC(CN3CC4CCC(C3)C4N)C3(CC3)C2)c2nccnc12 (centres unmarked) [Example 4, 8-[7-[(8-Amino-3-azabicyclo[3.2.1]octan-3-yl)methyl]-5-azaspiro[2.4]heptan-5-yl]quinoxaline-5-carbonitrile] | 28 nM
CN(C)[C@@H]1CCN(C[C@H]2CN(c3ccc(C#N)c4nccnc34)C[C@@H]2C(F)(F)F)C1 [Example 83, 8-[(3S,4R)-3-[[(3R)-3-(dimethylamino)pyrrolidin-1-yl]methyl]-4-(trifluoromethyl)pyrrolidin-1-yl]quinoxaline-5-carbonitrile] | 25 nM
CN1CCC2(CCN(C[C@H]3CN(c4ccc(C#N)c5nccnc45)C[C@@H]3C(F)(F)F)C2)C1 (stereo partly drawn) [Example 84, 8-[(3S,4R)-3-[(7-methyl-2,7-diazaspiro[4.4]nonan-2-yl)methyl]-4-(trifluoromethyl)pyrrolidin-1-yl]quinoxaline-5-carbonitrile] | 48 nM
CC1(CN)CCN(C[C@H]2CN(c3ccc(C#N)c4nccnc34)C[C@@H]2C(F)(F)F)C1 (stereo partly drawn) [Example 85, 8-[(3S,4R)-3-[[3-(aminomethyl)-3-methyl-pyrrolidin-1-yl]methyl]-4-(trifluoromethyl)pyrrolidin-1-yl]quinoxaline-5-carbonitrile] | 83 nM
